Article PMC3269340, “Pharmacokinetics of memantine in rats and mice” (PLoS Currents, 2012)
Read-outs that look alike come from different tables or passages of the source.

Experiment: Pharmacokinetics in rats after single iv, po or sc dose (plasma and brain)
Format: in vivo, Sprague-Dawley rats
Conditions: for half-life / AUC(0-inf) / Cmax: plasma
Procedure: Sprague Dawley (SD) rats (138 adult males), and C57Bl/6 mice (140 adult males), were obtained (Hilltop Laboratories, Scottsdale, PA); 123 per species were used in the study and the remainder provided blank matrix. Animals were individually identified by tail markings and were acclimated to the study environment for 16-21 days prior to dose administration. Animals were individually housed in suspended wire caging, and were kept on a 12h/12h light/dark cycle except when interrupted for study procedures. Average room temperature was regulated in the range 18 to 29°C, average relative humidity of 30-70%, and an average daily airflow >10 fresh air changes/h. Animals were fed LabDiet^Ò Certified Rodent Diet 5002 Meal food ad libitum, except during fasting prior to dose administration, and had access to water ad libitum.
[…] […] The concentration of memantine for the same dose level administered to mice was 0.2 mg eq./mL, and the dose volume was 5 mL/kg. The concentration of memantine in the 10mg eq./kg po and sc solutions was 5 mg eq./mL and the dose volume was 2 mL/kg for both rats and mice.
Details of the dose administration, body weights, clinical observations, plasma and brain sample collection and preparation are not shown in this report but are available upon request. Blood (for preparation of plasma) and brain samples were collected at 0.08, 0.25, 0.5, 1, 2, 4, 8, and 24h post-dose.
Since all time points were terminal, mean memantine concentrations per time point were used to calculate the composite PK parameters by non-compartmental analysis using WinNonlin program, version 5.2 (Pharsight Corp., Mountain View, California). A model was selected based on the vascular (iv bolus) or extravascular (po or sc) routes of administration. For the iv route, plasma concentration at time zero was back extrapolated from the first two observed post dose plasma concentrations. For the po and sc routes, concentration at time zero was assumed to be zero. Plasma and tissue concentrations below the limit of quantitation were treated as absent samples for the purpose of calculating the mean plasma concentration values or for calculating PK parameters.
The area under the plasma concentration versus time curve (AUC) was calculated using the linear trapezoidal method (linear interpolation). When appropriate, the terminal elimination phase of the PK profile was estimated based on the best fit (r^2) using at least the last three observed concentrations. PK parameters describing the systemic exposure of memantine in plasma and brain were estimated from observed (rather than predicted) plasma/brain concentrations, the dosing regimen, the AUC, and the terminal elimination phase rate constant (kel) for each group. The portion of the AUC from the last measurable concentration to infinity was estimated from the equation Ct/kel, where Ct represents the last measurable concentration. The extrapolated portion of the AUC was used for the determination of AUC0-∞. The percent bioavailability (%F) was calculated by dividing the dose normalized extravascular plasma AUC0-∞ by the dose normalized iv plasma AUC0-∞ times 100. The bioavailability calculations assumed concentrations were in the linear range.
Concentrations of memantine in rat and mouse plasma and brain were determined using an LC-MS/MS assay developed at ABC Laboratories.

[1] = rat brain, po dose increase from 1.22 to 10 mg/kg
[2] = rat plasma, po dose increase from 1.22 to 10 mg/kg

Q: For `CC12CC3CC(C)(C1)CC(N)(C3)C2` [memantine], which half-life (male, Sprague-Dawley, rat, iv, 1 mg/kg, rat, printed under 1 mg/kg (iv), cross-species summary, read-out: t 1/2 (converted)) is on record?
A: Its half-life is 240 min.

Q: What about the AUC(0-inf) (male, Sprague-Dawley, rat, iv, 1.22 mg/kg, rat plasma, IV 1.22 mg eq./kg, read-out: AUC(0-∞)) of the same compound?
A: Its AUC(0-inf) is 1.64 µM·h.

Q: What about the half-life (male, Sprague-Dawley, rat, iv, 1.22 mg/kg, rat plasma, IV 1.22 mg eq./kg, read-out: Half-life (t½) (converted)) of the same compound?
A: Its half-life is 114 min.

Q: And the AUC(0-inf) (male, Sprague-Dawley, rat, po, 1 mg/kg, rat, dose 1 mg/kg, single dose in solution (oral values of Table 1), read-out: AUC inf)?
A: The AUC(0-inf) was 0.6 µM·h.

Q: And the Cmax (male, Sprague-Dawley, rat, po, 1 mg/kg, rat, dose 1 mg/kg, single dose in solution, read-out: C max)?
A: Its Cmax is 100 nM.

Q: And the AUC(0-inf) (male, Sprague-Dawley, rat, po, 1.22 mg/kg, rat plasma, PO 1.22 mg eq./kg, read-out: AUC(0-∞))?
A: The AUC(0-inf) was 0.594 µM·h.

Q: And the half-life (male, Sprague-Dawley, rat, po, 1.22 mg/kg, rat plasma, PO 1.22 mg eq./kg, read-out: Half-life (t½) (converted))?
A: The half-life was 134 min.

Q: And the Cmax (male, Sprague-Dawley, rat, po, 1.22 mg/kg, rat plasma, PO 1.22 mg eq./kg, read-out: Observed Cmax)?
A: Its Cmax is 109 nM.

Q: And the AUC(0-inf) (male, Sprague-Dawley, rat, po, 10 mg/kg, rat plasma, PO 10.0 mg eq./kg, read-out: AUC(0-∞))?
A: Its AUC(0-inf) is 11.4 µM·h.

Q: And the half-life (male, Sprague-Dawley, rat, po, 10 mg/kg, rat plasma, PO 10.0 mg eq./kg, read-out: Half-life (t½) (converted))?
A: Its half-life is 235 min.

Q: And the Cmax (male, Sprague-Dawley, rat, po, 10 mg/kg, rat plasma, PO 10.0 mg eq./kg, read-out: Observed Cmax)?
A: The Cmax was 3700 nM.

Q: What about the AUC(0-inf) (male, Sprague-Dawley, rat, po, 10 mg/kg, rat, dose 10 mg/kg, single dose in solution (oral values of Table 1), read-out: AUC inf) of the same compound?
A: The AUC(0-inf) was 11.4 µM·h.

Q: What about the Cmax (male, Sprague-Dawley, rat, po, 10 mg/kg, rat, dose 10 mg/kg, single dose in solution, read-out: C max) of the same compound?
A: Its Cmax is 3700 nM.

Q: What about the AUC(0-inf) (male, Sprague-Dawley, rat, sc, 1 mg/kg, rat plasma, SC 1.0 mg eq./kg, read-out: AUC(0-∞)) of the same compound?
A: Its AUC(0-inf) is 1.69 µM·h.

Q: What about the half-life (male, Sprague-Dawley, rat, sc, 1 mg/kg, rat plasma, SC 1.0 mg eq./kg, read-out: Half-life (t½) (converted)) of the same compound?
A: The half-life was 109 min.

Q: What about the Cmax (male, Sprague-Dawley, rat, sc, 1 mg/kg, rat plasma, SC 1.0 mg eq./kg, read-out: Observed Cmax) of the same compound?
A: Its Cmax is 985 nM.

Q: And the AUC(0-inf) (male, Sprague-Dawley, rat, sc, 10 mg/kg, rat plasma, SC 10.0 mg eq./kg, read-out: AUC(0-∞))?
A: Its AUC(0-inf) is 25.8 µM·h.

Q: What about the half-life (male, Sprague-Dawley, rat, sc, 10 mg/kg, rat plasma, SC 10.0 mg eq./kg, read-out: Half-life (t½) (converted)) of the same compound?
A: Its half-life is 155 min.

Q: What about the Cmax (male, Sprague-Dawley, rat, sc, 10 mg/kg, rat plasma, SC 10.0 mg eq./kg, read-out: Observed Cmax) of the same compound?
A: The Cmax was 6190 nM.

Q: What about the Tmax (male, Sprague-Dawley, subcutaneous, rat plasma, po and sc, all dose levels, read-out: Tmax after extravascular administration) of the same compound?
A: The Tmax was 30 to 60 min.

Q: What about the Cmax/Cmin ratios (rat) of the same compound?
A: Its Cmax/Cmin ratios is over 100.

Q: And the “total systemic clearance, times higher than GFR” value (rat)?
A: Its value is ~ 13 fold.

Q: And the AUCnorm (rat brain, IV 1.22 mg eq./kg)?
A: Its AUCnorm is 39040 (nM hr/kg) /(kg/mg).

Q: And the “Observed CmaxNorm” value (rat brain, IV 1.22 mg eq./kg)?
A: The value was 9003 nM/ (mg/kg).

Q: What about the AUCnorm (rat brain, PO 1.22 mg eq./kg) of the same compound?
A: The AUCnorm was 17310 (nM hr/kg) /(kg/mg).

Q: And the “Observed CmaxNorm” value (rat brain, PO 1.22 mg eq./kg)?
A: The value was 1775 nM/ (mg/kg).

Q: And the AUCnorm (rat brain, PO 10.0 mg eq./kg)?
A: The AUCnorm was 25620 (nM hr/kg) /(kg/mg).

Q: What about the “Observed CmaxNorm” value (rat brain, PO 10.0 mg eq./kg) of the same compound?
A: Its value is 2543 nM/ (mg/kg).

Q: What about the AUCnorm (rat brain, SC 1.0 mg eq./kg) of the same compound?
A: Its AUCnorm is 52980 (nM hr/kg) /(kg/mg).

Q: And the “Observed CmaxNorm” value (rat brain, SC 1.0 mg eq./kg)?
A: Its value is 10620 nM/ (mg/kg).

Q: And the AUCnorm (rat brain, SC 10.0 mg eq./kg)?
A: Its AUCnorm is 44160 (nM hr/kg) /(kg/mg).

Q: What about the “Observed CmaxNorm” value (rat brain, SC 10.0 mg eq./kg) of the same compound?
A: Its value is 7544 nM/ (mg/kg).

Q: What about the “AUC0-∞ increase, fold more than dose proportional” value [1] of the same compound?
A: The value was 1.5 fold.

Q: What about the “Cmax increase, fold more than dose proportional” value [1] of the same compound?
A: Its value is ~ 1.5 fold.

Q: What about the “Cmax and AUC0-∞ increase relative to dose proportional” value (rat brain, sc dose increase from 1 to 10 mg/kg, slightly less than dose proportional) of the same compound?
A: The value was 0.7-0.8 fold.

Q: And the AUCnorm (rat plasma, IV 1.22 mg eq./kg)?
A: The AUCnorm was 1342 (nM hr/kg) /(kg/mg).

Q: What about the AUCnorm (rat plasma, PO 1.22 mg eq./kg) of the same compound?
A: Its AUCnorm is 486.9 (nM hr/kg) /(kg/mg).

Q: And the “Observed CmaxNorm” value (rat plasma, PO 1.22 mg eq./kg)?
A: The value was 89.07 nM/ (mg/kg).

Q: What about the AUCnorm (rat plasma, PO 10.0 mg eq./kg) of the same compound?
A: Its AUCnorm is 1139 (nM hr/kg) /(kg/mg).

Q: What about the “Observed CmaxNorm” value (rat plasma, PO 10.0 mg eq./kg) of the same compound?
A: The value was 369.6 nM/ (mg/kg).

Q: What about the AUCnorm (rat plasma, SC 1.0 mg eq./kg) of the same compound?
A: Its AUCnorm is 1686 (nM hr/kg) /(kg/mg).

Q: And the “Observed CmaxNorm” value (rat plasma, SC 1.0 mg eq./kg)?
A: The value was 985.0 nM/ (mg/kg).

Q: And the AUCnorm (rat plasma, SC 10.0 mg eq./kg)?
A: Its AUCnorm is 2581 (nM hr/kg) /(kg/mg).

Q: What about the “Observed CmaxNorm” value (rat plasma, SC 10.0 mg eq./kg) of the same compound?
A: Its value is 618.9 nM/ (mg/kg).

Q: And the “AUC0-∞ increase, fold more than dose proportional” value [2]?
A: The value was 2.3 fold.

Q: What about the “Cmax increase, fold more than dose proportional” value [2] of the same compound?
A: The value was ~ 4 fold.

Q: What about the “AUC0-∞ increase, fold more than dose proportional” value (rat plasma, sc dose increase from 1 to 10 mg/kg) of the same compound?
A: Its value is 1.5 fold.

Q: And the elimination half-life (rat, all dose routes and levels (plasma; b142 also brain))?
A: The elimination half-life was under 4 h.

Q: And the “C max/ C min ratio” value (rat, dose 10 mg/kg)?
A: Its value is 123.

Q: What about the “delay in Tmax for brain compared to plasma” value (rat, same dose level and route) of the same compound?
A: The value was 15 to 90 min.

Q: What about the “Contribution of active transport to clearance” value (rodent (rat)) of the same compound?
A: Its value is over 100%.

Q: What about the “brain elimination half-lives after extravascular administrations” value (summary for rats and mice, rat) of the same compound?
A: The value was 2.28 – 3.8.
